Measurements reported in US8816089B2, “Methods for controlling SR protein phosphorylation, and antiviral agents whose active ingredients comprise agents that control SR protein activity” (priority 2003, dated 2014).
Peptide text beside a SMILES is read from it. * marks the point of attachment. Cbz = O=C(OCc1ccccc1)*

How the values were obtained:
Cytomegalovirus = conditions: HFL1 cells, 20 or 40 μM, seven days after infection
SARS virus (FFM-1) = assay type: cell-based; conditions: Vero cells, 40 μM, 48 hours
[1] = tested on: Chinese hamster CHL cells; assay: Chromosomal screening test for mutagenicity in mammalian cells; conditions: positive control, 500 μg/ml, short treatment, +S9 mix
SRp75, SRp55, and SRp40 = assay: Degradation of HA-tagged SR proteins in Flp-In-293 cells, Western blot; assay type: cell-based, human; conditions: 10 μM, ten hours
Description: FIG. 1B: Degradation of SR protein. Plasmids for the SRp75, SRp55, and SRp40 genes were fused with HA tag and introduced into Flp-In-293 cells. MG132 (474790; purchased from CALBIOCHEM) was added to the cells at a final concentration of 10 μM. The cells were lysed and heat-denatured. The resulting protein sample was separated by SDS-PAGE, followed by Western analysis using a rabbit anti-HA antibody as the primary antibody and a donkey anti-rabbit IgG antibody as the secondary antibody.
Using Genejuice, 1 μg each of the plasmids for the SRp75, SRp55, and SRp40 genes fused with HA tag (HA-SRp75, HA-SRp55, and HA-SRp40; gifts from Dr. Woan-Yuh TARN), were introduced into Flp-In-293 cells derived from human fetal kidney. After 36 hours, MG132 (474790; purchased from Calbiochem), a ubiquitin proteasome inhibitor, was added at a final concentration of 10 μM. After ten hours, the cells were lysed with SDS-PAGE sample buffer and heat-denatured. The resulting lysate was used as a protein sample. Using the same procedures as described above, the sample was fractionated by SDS-PAGE, and analyzed by Western blotting using a rabbit anti-HA antibody (H1803; purchased from Santa Cruz) as a primary antibody and a donkey anti-rabbit IgG antibody (NA9340; purchased from Amersham) as a secondary antibody.

HIV = HIV infection experiment in MT-4 cells, HIVp24 by Lumipulse ELISA; conditions: MT-4 cells, 5, 10, or 20 μM, supernatant after 48 hours
SRPK1 or SRPK2 = assay: Inhibition of SRPK1 or SRPK2 phosphorylation activity by SRPIN-1 analogs (FIG. 5A); assay type: biochemical; conditions: 10 μM in DMSO, 30° C., 20 minutes
Description: FIG. 5A: Evaluation of the SRPK-inhibiting activities of SRPIN-1 and analogs thereof.
The same procedure as described in Example 4B was used to determine whether SRPIN-1 analogs had the activity of inhibiting the phosphorylation activity of SRPK1 and SRPK2. Each SRPIN-1 analog (10 μM; in DMSO) was incubated with 1 μg of purified recombinant SRPK1 or SRPK2 protein, which was expressed in E. coli, in a reaction buffer (400 μM HEPES (pH 7.5), 100 μM MgCl2, 200 μM ATP, […] [γ-^32P] ATP, and 1 mg/ml RS peptide (SEQ ID NO: 5)) in a 30° C. water bath for 20 minutes.
After RS peptide was incubated with SRPK1 or SRPK2 for 20 minutes, the reaction solution was dropped onto P81 phosphocellulose membrane (P81; Whatman) and the membrane was washed three times for ten minutes with 5% phosphoric acid solution. After washing, ^32P radioactivity on the P81 membrane was determined using a liquid scintillation counter.

Compound	effect in suppressing HIV replication (HIVp24) (HIV)	inhibitory effect on the phosphorylation activity of SRPK1 and/or SRPK2 (SRPK1 or SRPK2)	also measured
O=C(Nc1ccccc1N1CCCCC1)c1ccncc1 [Compound No. 349, N-[2-(1-piperidinyl)phenyl]isonicotinamide]			morphological changes and cell death caused by cytomegalovirus infection (Cytomegalovirus): suppressed the abnormal morphological changes and cell death caused by cytomegalovirus infection; SARS virus propagation (plaque assay) (SARS virus (FFM-1)): significantly suppressed SARS virus propagation
CN(C)N=O [DMN, dimethylnitrosamine, reference compound]			frequency of occurrence of cells with chromosomal abnormalities [1]: 52.0%; frequency of occurrence of cells with chromosomal abnormalities (number of cells) ([1]; 50 metaphasic cells): 26 cells
CC(C)C[C@@H](C=O)NC(=O)[C@H](CC(C)C)NC(=O)[C@H](CC(C)C)NC(=O)OCc1ccccc1 [MG132] (Cbz-Leu-Leu-Leu-aldehyde)			degradation of SR proteins (anti-HA signal) (SRp75, SRp55, and SRp40): inhibited degradation of SR75, SR55, and SR40 proteins
O=C(Nc1cc(Cl)ccc1N1CCCCC1)c1ccncc1 [compound 341, N-[5-chloro-2-(1-piperidinyl)phenyl]isonicotinamide]	strong effects in suppressing HIV propagation		
Cc1ccc(N2CCCCC2)c(NC(=O)c2ccncc2)c1 [compound 342, N-[5-methyl-2-(1-piperidinyl)phenyl]isonicotinamide]	strong effects in suppressing HIV propagation		
O=C(Nc1cc(C(F)(F)F)ccc1N1CCCCC1)c1cccnc1 [compound 343, N-[2-(1-piperidinyl)-5-(trifluoromethyl)phenyl]nicotinamide]	strong effects in suppressing HIV propagation		
O=C(Nc1cc(C(F)(F)F)ccc1N1CCCCC1)c1ccc([N+](=O)[O-])cc1 [compound 345, N-[2-(1-piperidinyl)-5-(trifluoromethyl)phenyl]-4-nitrobenzamide]	strong effects in suppressing HIV propagation		
CCN(CC)c1ccc(C(F)(F)F)cc1NC(=O)c1ccncc1 [compound 347, N-[2-diethylamino-5-(trifluoromethyl)phenyl]isonicotinamide]	strong effects in suppressing HIV propagation		
O=C(Nc1cc(F)ccc1N1CCCCC1)c1ccncc1 [compound 348, N-[5-fluoro-2-(1-piperidinyl)phenyl]isonicotinamide]	strong effects in suppressing HIV propagation		
O=C(Nc1cccc(C(F)(F)F)c1)c1ccncc1 [compound 608, N-[3-(trifluoromethyl)phenyl]isonicotinamide]	strong effects in suppressing HIV propagation		
O=C(Nc1cc(C(F)(F)F)ccc1Br)c1ccncc1 [compound 612, N-[2-bromo-5-(trifluoromethyl)phenyl]isonicotinamide]		strong inhibitory effect	
C[C@H]1CCCCN1c1ccc(C(F)(F)F)cc1NC(=O)c1ccncc1 [compound 613, (S)—N-[2-(2-methyl-1-piperidinyl)-5-(trifluoromethyl)phenyl]isonicotinamide]	strong effects in suppressing HIV propagation	strong inhibitory effect	
COc1ccc(C(=O)Nc2cc(C(F)(F)F)ccc2N2CCCCC2)cc1 [compound 615, N-[2-(1-piperidinyl)-5-(trifluoromethyl)phenyl]-4-methoxybenzamide]	strong effects in suppressing HIV propagation	strong inhibitory effect	
FC(F)(F)c1ccc(N2CCCCC2)c(NC(=S)c2ccncc2)c1 [compound 616, N-[2-(1-piperidinyl)-5-(trifluoromethyl)phenyl]isonicotinthioamide]	strong effects in suppressing HIV propagation		
O=C(Nc1cc(C(F)(F)F)ccc1N1CCCCCC1)c1ccncc1 [compound 618, N-[2-(1-hexahydro-1H-azepinyl)-5-(trifluoromethyl)phenyl]isonicotinamide]	strong effects in suppressing HIV propagation	strong inhibitory effect	
O=C(Nc1cc(C(F)(F)F)ccc1N1CCc2ccccc21)c1ccncc1 [compound 619, N-[2-(1-indolinyl)-5-(trifluoromethyl)phenyl]isonicotinamide]	strong effects in suppressing HIV propagation	strong inhibitory effect	
O=C(Nc1cc(C(F)(F)F)ccc1N1Cc2ccccc2C1)c1ccncc1 [compound 620, N-[2-(2-isoindolinyl)-5-(trifluoromethyl)phenyl]isonicotinamide]	strong effects in suppressing HIV propagation		
O=C(Nc1cc(C(F)(F)F)ccc1N1CCc2ccccc2C1)c1ccncc1 [compound 621, N-[2-(1,2,3,4-tetrahydroisoquinolin-2-yl)-5-(trifluoromethyl)phenyl]isonicotinamide]		strong inhibitory effect	
Cc1ccc(S(=O)(=O)Nc2cc(C(F)(F)F)ccc2N2CCCCC2)cc1 [compound 622, N-[2-(1-piperidinyl)-5-(trifluoromethyl)phenyl]-p-toluenesulfonamide]	strong effects in suppressing HIV propagation		
O=C(NC(=S)Nc1ccc(I)cc1Cl)c1cccnc1 [compound 623]	strong effects in suppressing HIV propagation		
O=C(NC(=S)Nc1cc(C(F)(F)F)ccc1N1CCCCC1)c1cccnc1 [compound 624, 1-nicotinoyl-3-[2-(1-piperidinyl)-5-(trifluoromethyl)phenyl]thiourea]	strong effects in suppressing HIV propagation	strong inhibitory effect	
O=C(NC(=S)Nc1cccc(C(F)(F)F)c1)c1cccnc1 [compound 625]	strong effects in suppressing HIV propagation	strong inhibitory effect	
O=C(NC(=S)Nc1ccccc1)c1cccnc1 [compound 626]	strong effects in suppressing HIV propagation		
